Tests used:
Type in all cases: cell-based, human
[1] = system: SCC4 cells of head and neck cancer; test: cells; conditions: Homo sapiens, SCC-4, dose 10 μg/ml, 48 h, positive control, read-out: proliferation inhibition rate
Method: (§1) After SCC4 cells of head and neck cancer, SW579 cells of thyroid cancer, A549 cells of lung cancer, TE13 cells of esophageal squamous cell carcinoma, MGC803 cells of stomach cancer, MDA-MB-231 cells of breast cancer, UOK262 cells of kidney cancer and A431 cells of skin cancer of human were cultured in a 37 DEG C. 5% CO2 incubator until the density was 90%, they were digested and collected by trypsin, the cells were re-suspended in a culture solution and counted under a microscope, the concentration of the cells was adjusted to 3.0×10^4 cells/mL, and the cell suspension was inoculated to 96-well plates, 100 μL per well, and cultured in a 37 DEG C. 5% CO2 incubator overnight. After the cells were completely adherent, different doses of micropeptides HMMW I to IX were added as drug groups, taxol was used as a positive control group, and the culture solution without any drug was used as a blank control group. They were diluted with the culture solution till predetermined concentrations. The diluted solutions were added to 96-well plates, respectively, 100 μL per well, and incubated in a 37 DEG C. 5% CO2 incubator for 48 h. 20 μL of 5 mg/mL MTT was added to each well of the 96-well plates, and the culture was continued for 4 h. The culture medium was sucked away, and 100 μL of DMSO was added to each well for dissolution. Absorbance was detected by ELIASA at detection wavelength 570 nm and reference wavelength 630 nm, and proliferation inhibition (PI) was calculated according to Formula PI (%)=1−drug group/negative group. The test was independently repeated three times. The results obtained from the test were expressed with mean±SD and statistical t test was done. *P<0.05 means significant difference, and **P<0.01 means very significant difference.

[2] = system: TE13 cells of esophageal squamous cell carcinoma; test: cells; conditions: Homo sapiens, dose 10 μg/ml, 48 h, positive control, read-out: proliferation inhibition rate
Method: as §1

[3] = system: A431 cells of skin cancer; test: cells; conditions: Homo sapiens, A-431, dose 10 μg/ml, 48 h, positive control, read-out: proliferation inhibition rate
Method: as §1

[4] = system: UOK262 cells of kidney cancer; test: cells; conditions: Homo sapiens, UOK 262, dose 10 μg/ml, 48 h, positive control, read-out: proliferation inhibition rate
Method: as §1

[5] = system: SW579 cells of thyroid cancer; test: cells; conditions: Homo sapiens, dose 10 μg/ml, 48 h, positive control, read-out: proliferation inhibition rate
Method: as §1

[6] = system: A549 cells of lung cancer; test: cells; conditions: Homo sapiens, dose 10 μg/ml, 48 h, positive control, read-out: proliferation inhibition rate
Method: as §1

[7] = system: MGC803 cells of stomach cancer; test: cells; conditions: Homo sapiens, MGC-803, dose 10 μg/ml, 48 h, positive control, read-out: proliferation inhibition rate
Method: as §1

[8] = system: MDA-MB-231 cells of breast cancer; test: cells; conditions: Homo sapiens, dose 10 μg/ml, 48 h, positive control, read-out: proliferation inhibition rate
Method: as §1

[9] = system: SCC4 cells of head and neck cancer; test: Matrigel transwell invasion test; conditions: dose 10 (unit not given), 24 h
Method: (§2) Dilute 10 mg/mL Matrigel with culture medium at 1:3, spread it on membranes of transwell cells and dry it in the air at room temperature. Use trypsin to digest and collect SCC4 cells of head and neck cancer, SW579 cells of thyroid cancer, A549 cells of lung cancer, TE13 cells of esophageal squamous cell carcinoma, MGC803 cells of stomach cancer, MDA-MB-231 cells of breast cancer, UOK262 cells of kidney cancer, and A431 cells of skin cancer of human, which were cultured to the logarithmic phase, wash with PBS twice and re-suspend with a blank culture medium. Adjust cell concentration to 1×10^5 cells/mL. Inoculate the cells to transwell cells, 100 μL per well, and meanwhile add micropeptides HMMW I to IX at different doses to every cell. Add 0.6 mL of complete medium containing 10% FBS to the transwell cells to stimulate cell invasion, and culture in 5% CO2 at 37 DEG C. for 24 h. Discard the medium in the wells, fix with 90% alcohol at room temperature for 30 min, stain with 0.1% crystal violet at room temperature for 10 min, rinse with clear water, gently wipe off the non-invaded cells in the upper layer with a cotton swab, observe under a microscope and select four fields of view to take pictures and count. Calculate the invasion inhibition rate (IIR) of the cells according to the following formula:
(§3) [formula] where Ntest is the number of invaded cells in the test groups (the groups at a dose of 1, 4 or 16 μM in the table), Ncontrol is the number of invaded cells in the blank control groups (the groups at a dose of 0 μM in the table). The test was repeated independently three times. Mean±SD was calculated based on the test results. Statistical t test was done. Value P was used to express statistical difference. The statistical significance of the results is a method for estimating how true the results are (the totality can be represented), *P<0.05 means significant difference, and **P<0.01 means very significant difference.

[10] = system: TE13 cells of esophageal squamous cell carcinoma; test: Matrigel transwell invasion test; conditions: dose 10 (unit not given), 24 h
Method: as §2, §3

[11] = system: A431 cells of skin cancer; test: Matrigel transwell invasion test; conditions: dose 10 (unit not given), 24 h
Method: as §2, §3

[12] = system: UOK262 cells of kidney cancer; test: Matrigel transwell invasion test; conditions: dose 10 (unit not given), 24 h
Method: as §2, §3

[13] = system: SW579 cells of thyroid cancer; test: Matrigel transwell invasion test; conditions: dose 10 (unit not given), 24 h
Method: as §2, §3

[14] = system: A549 cells of lung cancer; test: Matrigel transwell invasion test; conditions: dose 10 (unit not given), 24 h
Method: as §2, §3

[15] = system: MGC803 cells of stomach cancer; test: Matrigel transwell invasion test; conditions: dose 10 (unit not given), 24 h
Method: as §2, §3

[16] = system: MDA-MB-231 cells of breast cancer; test: Matrigel transwell invasion test; conditions: dose 10 (unit not given), 24 h
Method: as §2, §3

[17] = system: SCC4 cells of head and neck cancer; test: transwell migration test; conditions: dose 10 (μM), 24 h
Method: (§4) Inoculate SCC4 cells of head and neck cancer, SW579 cells of thyroid cancer, A549 cells of lung cancer, TE13 cells of esophageal squamous cell carcinoma, MGC803 cells of stomach cancer, MDA-MB-231 cells of breast cancer, UOK262 cells of kidney cancer, and A431 cells of skin cancer of human to transwell cells, 100 μL per well, and meanwhile add micropeptides HMMW I to IX at different doses to every cell. Add 0.6 mL of complete medium containing 10% FBS to the transwell cells to stimulate cell migration, and culture in 5% CO2 at 37 DEG C. for 24 h. Discard the medium in the wells, fix with 90% alcohol at room temperature for 30 min, stain with 0.1% crystal violet at room temperature for 10 min, rinse with clear water, gently wipe off the non-migrated cells in the upper layer with a cotton swab, observe under a microscope and select four fields of view to take pictures and count. Calculate the migration inhibition rate (MIR) of the cells according to the following formula: […]
(§5) The test was repeated independently three times. Mean±SD was calculated based on the test results. Statistical t test was done. Here, “the test was repeated independently three times” means that every dose of any type of cells was tested repeatedly three times, and then the above formula was used to calculate the number of migrated cells (Mean±SD). Value P was used to express statistical difference. The statistical significance of the results is a method for estimating how true the results are (the totality can be represented), *P<0.05 means significant difference, and **P<0.01 means very significant difference.

[18] = system: TE13 cells of esophageal squamous cell carcinoma; test: transwell migration test; conditions: dose 10 (μM), 24 h
Method: as §4, §5

[19] = system: A431 cells of skin cancer; test: transwell migration test; conditions: dose 10 (μM), 24 h
Method: as §4, §5

[20] = system: UOK262 cells of kidney cancer; test: transwell migration test; conditions: dose 10 (μM), 24 h
Method: as §4, §5

[21] = system: SW579 cells of thyroid cancer; test: transwell migration test; conditions: dose 10 (μM), 24 h
Method: as §4, §5

[22] = system: A549 cells of lung cancer; test: transwell migration test; conditions: dose 10 (μM), 24 h
Method: as §4, §5

[23] = system: MGC803 cells of stomach cancer; test: transwell migration test; conditions: 24 h
Method: as §4, §5

[24] = system: MDA-MB-231 cells of breast cancer; test: transwell migration test; conditions: dose 10 (μM), 24 h
Method: as §4, §5

CC(=O)O[C@H]1C(=O)[C@@]2(C)[C@H]([C@H](OC(=O)c3ccccc3)[C@]3(O)C[C@H](OC(=O)[C@H](O)[C@@H](NC(=O)c4ccccc4)c4ccccc4)C(C)=C1C3(C)C)[C@]1(OC(C)=O)CO[C@@H]1C[C@@H]2O [Taxol, taxol, reference compound]
inhibition at 10 µg/mL [1]: 87%
inhibition at 10 µg/mL [2]: 79.2%
inhibition at 10 µg/mL [3]: 85.2%
inhibition at 10 µg/mL [4]: 83.9%
inhibition at 10 µg/mL [5]: 82.8%
inhibition at 10 µg/mL [6]: 84.3%
inhibition at 10 µg/mL [7]: 81.3%
inhibition at 10 µg/mL [8]: 83.9%

Avastin: comparison group in the migration and invasion tables; not described in the text [reference compound]
invasion inhibition rate [9]: 68.41%
invasion inhibition rate [10]: 69.31%
invasion inhibition rate [11]: 70.39%
invasion inhibition rate [12]: 72.16%
invasion inhibition rate [13]: 67.40%
invasion inhibition rate [14]: 61.35%
invasion inhibition rate [15]: 63.48%
invasion inhibition rate [16]: 70.03%
migration inhibition rate [17]: 68.64%
migration inhibition rate [18]: 58.19%
migration inhibition rate [19]: 64.63%
migration inhibition rate [20]: 61.39%
migration inhibition rate [21]: 59.81%
migration inhibition rate [22]: 66.21%
migration inhibition rate [23]: 71.25%
migration inhibition rate [24]: 62.19%
